Results as given in patent publication US4513008A, “Virucidal compositions and therapy” (The Vinoxen Company, Inc., priority 1982, dated 1985).

What was measured:
[1] = tested on: herpes virus type 2; assay: Guinea pig bioassay: intravaginal HSV-2 infection, topical treatment; format: in vivo; parameters: key to MVL Score Day 5 / MVL Score Day 6 / MVL Score Day 7 / MVL Score Day: lesion severity scored on 0 to 4 scale
Protocol: In both studies, DHA was compared with ACV in a controlled study for effectiveness in reducing the occurrence and the severity of lesions resulting from infection by HSV-2 and in reducing mortality resulting from the virus infection.
Using substantially the procedures of Pancic et al., loc. cit., the topical activity of DHA, a representative and preferred virucide for use in the present method, was evaluated in mice and in guinea pigs. Both evaluations included comparative testing against ACV and the mouse tests included a comparison of two different vehicles.
A blind comparative test was carried out on guinea pigs using coded substances labeled A through D. The testers were told only that one of the four substances was ACV, that the other three coded samples were the same material, in concentrations of 0.1, 1.0 and 10 mg/ml, and that all four samples were formulated in a polyethylene glycol 1000 (PEG-1000) vehicle. A separate sample of the PEG-1000 was also submitted to serve as a placebo for treating virus control animals. The materials and experimental protocol is shown below.
Animals. Female Hartley strain albino guinea pigs weighing about 450-500 g were used. The animals were quarantined 24 hr prior to use in this study, and maintained 5 to a 32"×32"×9" stainless steel cage on Wayne guinea pig diet and water ad libitum.
Virus. Strain E194 of herpes virus type 2 was used. […] The virus was held at -90° C. until used.
(§1) Drugs. The substances tested consisted of four bottles labelled "A", "B", "C", and "D" with no identifying key. The samples were: A, 0.1 mg/ml DHA (0.003 mmol/ml); B, 5% w/w ACV (0.22 mmol/ml); C, 1 mg/ml DHA (0.03 mmol/ml); and D, 10 mg/ml DHA ([…]). […] All were treated as light-sensitive compounds.
Experimental Protocol. The guinea pigs were infected by applying a virus-soaked swab intravaginally, with agitation, for 20 seconds. […] Treatment began 20 hr later, with the compound or placebo applied topically intravaginally, perivaginally, and perianally using cotton swabs soaked in the respective substance. Treatment continued three times daily (8 a.m., noon, 4 p.m.) for 7 days. Ten infected animals were used for each coded substance, with twenty used for virus controls. Five sham-infected animals were concomitantly treated with each coded substance to serve as toxicity controls. Two guinea pigs were held separately to serve as normal untreated controls.
(§2) On days 5 through 8 post-virus inoculation, the genital area was carefully examined and signs of irritation in the toxicity controls and lesion severity in injected animals was scored on a 0 to 4 scale using the same scale as in the mouse bioassay. The results were scored as average daily lesion (ADL) scores for each group, and as mean vaginal lesion (MVL) scores, calculated as the mean of the ADL scores for days 5-8. The maximum mean score for the toxicity control animals was also determined.
On day 6 prior to the 8 a.m. treatment, intravaginal and perivaginal areas of each infected guinea pig were uniformly swabbed with sterile cotton swabs. The swab for each animal was placed in 1.0 ml of sterile Eagles minimum essential medium and immediately frozen at -90° C.; several days later all were thawed and each swab-containing sample vortexed for 15 seconds and then the sample was diluted through a series of 10-fold dilutions in sterile medium. Each dilution was assayed for virus in triplicate by adding 0.1 ml to an established monolayer of MA-104 cells in 96-well disposable plastic microplates. The plates were sealed, incubated at 72 hr at 37° C., and virus-induced cytopathic effect noted microscopically.
Data Analysis. Increases in survivors were analyzed using chi square analysis with Yate's correction. Mean survival times (MST) of animals dying on or before […] were determined for each group, and evaluated using the t test.

[2] = Guinea pig toxicity controls (sham-infected, topical treatment); format: in vivo, guinea pigs; conditions: B: 5% w/w ACV in PEG-1000
Protocol: as §1
Experimental Protocol. The guinea pigs were infected by applying a virus-soaked swab intravaginally, with agitation, for 20 seconds. Toxicity control animals were similar pretreated using swabs soaked in sterile Puck's balanced salt solution. Treatment began 20 hr later, with the compound or placebo applied topically intravaginally, perivaginally, and perianally using cotton swabs soaked in the respective substance. Treatment continued three times daily (8 a.m., noon, 4 p.m.) for 7 days. Ten infected animals were used for each coded substance, with twenty used for virus controls. Five sham-infected animals were concomitantly treated with each coded substance to serve as toxicity controls. Two guinea pigs were held separately to serve as normal untreated controls.
as §2, with “Each animal was observed daily for survival for a total of 28 days. On” for “On”

[3] = tested on: HSV-2; assay: In vivo mouse bioassay: intravaginal HSV-2 infection, topical treatment; parameters: species or system HSV-2 strain 333 in female Swiss Webster mice; key to Max. Lesion Score: 0: no clinical signs of vaginal infection; ±: slight perivaginal redness; perivaginal redness and swelling of 1-2 mm; perivaginal redness and swelling of 2-3 mm; perivaginal and perianal redness and swelling of 3-4 mm; perivaginal and perianal redness and swelling of 4 mm or more, with exudate; conditions: for # Infected, Day 14 / # of Deaths, Day 14: 10 animals/group
[4] = tested on: PR4 bacteriophage; conditions: PR4 bacteriophage in vitro; cited from earlier work
[5] = tested on: gram-positive and gram-negative microorganisms; conditions: cited from earlier work
[6] = tested on: bacteriophage; conditions: cited from earlier work
[7] = tested on: herpes simplex virus type 2 (HSV-2); assay: In vitro HSV-2 bioassay: virucidal plaque assay (HEP-2 cells); format: cell-based, HSV-2 strain 333; conditions: for plaque count: TNTC = too numerous to count
Protocol: Evidence of the efficacy of the virucides of the invention in vitro has been obtained from bioassay using HSV-2, using a standard assay procedure. Serial dilutions of the compounds were tested for their ability to prevent plaque formation by a stock virus suspension. Reduction of plaque titer by test compounds as compared to mock treated controls was indicative of virucidal activity. […] These represent the upper limit for the drug concentration, since dilutions were not carried beyond 1:6400 and in some cases 1:12800.
Cell Culture. Cell cultures used for the propagation and titration of HSV-2 were the human diploid lung embryonic line MRC-5 and the human malignant epitheloid cell line HEP-2 respectively. Stock monolayer cultures of both cell lines were propagated in Dulbecco's Modified Eagle's medium (DME) supplemented with 10% (V/V) calf serum. Spinner cultures for mass production of HEP-2 cells were grown in Joklik's medium supplemented with 10% (V/V) calf serum and 1% (W/V) pluronic acid. Monolayer cultures of HEP-2 cells for plaque or virucidal assay were seeded into 60 mm dishes in DME supplemented with 10% calf serum and antibiotics. Stock cultures were maintained in antibiotic free medium.
Herpes simplex virus, type 2 (HSV-2) strain 333 was obtained from Dr. John Hughes of the Dept. of Medical Microbiology, College of Medicine, The Ohio State University. Stocks of HSV-2 were prepared in the human diploid embryonic lung cell line, MRC-5. Confluent MRC-5 monolayer cultures in T-75 plastic flasks were washed one time with Hank's and Balanced Salt solution (HBSS) and infected with 0.5 ml of HSV-2, strain 333 stock. Virus was adsorbed for 1 hour at 37° C. Then the culture was refed with 15 ml of DME supplemented with 1% (V/V) calf serum. Virus was harvested 48 hours later when cytopathology was complete. Cultures were frozen and thawed rapidly three times to release cell associated virus, clarified by centrifugation at 10,000×g for 15 minutes at 4° C., aliquoted into 5 ml lots and frozen at -70° C. One lot was taken for virus titration.
HSV-2 was titrated by plaque assay in HEP-2 cells under a semi-solid methyl cellulose overlay. Tenfold serial dilutions of virus were prepared in HBSS and 0.3 ml aliquots of each dilution inoculated onto triplicate HEP-2 cell monolayers in 60 mm plastic petri dishes. Adsorption of virus was for 1 hour at 37° C. Plates were then overlayed with 5 ml of a 1:1 mixture of 2×DME supplemented with 2% (V/V) calf serum and 3% (W/V) methyl cellulose to give a final 1×DME supplemented with 1% calf serum and 1.5% methylcellulose. Infected plates were incubated at 37° C. in a humidified 10% CO2 atmosphere for 48 hours. Virus plaques were visualized by staining with crystal violet and counted under a dissecting microscope. Virus titers were calculated from the plaque numbers by averaging the plaque count and multiplying by 3.3 (0.3 ml plates).
The following procedure was employed to assay virucidal activity in various test samples. Compounds were received as a solution in DMSO and were serially diluted in HBSS as described for each experiment. For the test, 1 ml of each dilution was mixed with 1 ml of a stock virus suspension diluted to approximately 9×10^3 plaque forming units (P.F.U.)/ml. This test mixture was incubated at 25° C. for 30 minutes, then inoculated onto a cell culture (HEP-2) for plaque assay as described previously. Mock treated (virus plus HBSS) controls were included with each test. Any reduction of plaque titer by test compounds as compared to the mock treated control was indicative of virucidal activity.
Samples from RP-HPLC fractionation of the CLOH, produced according to Example 2, as well as purified samples of palmitic, myristic and oleic acids and Vitamin D2, were tested for HSV-2 bioactivity. […] Pure oleic acid was not active in this assay, nor were palmitic and myristic acids and Vitamin D2. […]

[8] = tested on: virus; conditions: cited from earlier work

For `Nc1nc2c(ncn2COCCO)c(=O)[nH]1` [Acyclovir, 9-(2-hydroxyethoxymethyl)guanine, reference compound], which “MVL Score Day 5” value ([1]; B: 5% w/w ACV in PEG-1000) is on record?
Its value is 1.8.

What about the “MVL Score Day 7” value ([1]; B: 5% w/w ACV in PEG-1000) of the same molecule?
The value was 3.4.

And the “MVL Scores Days 5-8” value ([1]; B: 5% w/w ACV in PEG-1000, 0 to 4 scale)?
Its value is 2.8.

What about the “Infected, Treated Surv/Total” value ([1]; B: 5% w/w ACV in PEG-1000, 28 days) of the same molecule?
The value was 5/10.

And the “MVL Score Day 6” value ([1]; B: 5% w/w ACV in PEG-1000, P < 0.05)?
The value was 2.3.

And the “MVL Score Day” value ([1]; B: 5% w/w ACV in PEG-1000, last day)?
Its value is 3.3.

What about the “reduction in lesion scores, in words” value ([1]; guinea pigs, topical) of the same molecule?
Its value is “neither ACV nor the lowest dosage of DHA were able to achieve a statistically significant reduction in lesion scores”.

And the “Toxicity Controls Surv/Total” value [2]?
The value was 5/5.

What about the “Toxicity Controls Max. Irrit. Score” value ([2]; 0 to 4 scale) of the same molecule?
Its value is 0.0.

What about the “Max. Lesion Score” value ([3]; ACV 5% wt/vol in DMSO) of the same molecule?
The value was “±”.

And the “# Infected, Day 14” value ([3]; ACV 5% wt/vol in DMSO)?
The value was 3.

And the “# of Deaths, Day 14” value ([3]; ACV 5% wt/vol in DMSO)?
Its value is 0.

What about the “Max. Lesion Score” value ([3]; ACV 5% wt/vol in PEG) of the same molecule?
Its value is “±”.

What about the “# Infected, Day 14” value ([3]; ACV 5% wt/vol in PEG) of the same molecule?
Its value is 4.

And the “# of Deaths, Day 14” value ([3]; ACV 5% wt/vol in PEG)?
The value was 0.

What about the “% Mortality” value ([3]; DMSO & Acyclovir (5%)) of the same molecule?
Its value is 0%.

And the “Day of Maximum % Morbidity” value ([3]; DMSO & Acyclovir (5%))?
The value was 7 days.

What about the “Maximum % Morbidity” value ([3]; DMSO & Acyclovir (5%)) of the same molecule?
Its value is 30%.

And the “Mean Day of Death” value ([3]; DMSO & Acyclovir (5%))?
The value was over 14 days.

And the “% Mortality” value ([3]; Ointment & Acyclovir (5%))?
The value was 0%.

And the “Day of Maximum % Morbidity” value ([3]; Ointment & Acyclovir (5%))?
Its value is 7 days.

What about the “Maximum % Morbidity” value ([3]; Ointment & Acyclovir (5%)) of the same molecule?
Its value is 40%.

And the “Mean Day of Death” value ([3]; Ointment & Acyclovir (5%))?
The value was over 14 days.

And the survival rate ([3]; both carrier vehicles, observed 14 day period)?
The survival rate was 100%.

And the “efficacy in mice in words” value ([3]; topical, HSV-2 infected mice)?
Its value is “effective in minimizing the clinical signs of infection in either carrier vehicle”.

Which results are given for `CCCCC/C=C\C/C=C\C/C=C\C/C=C\CCCC(=O)O` [Arachidonic acid]?
inhibition of viral replication, in words [4]: moderately effective, but less effective than linolenic acid; inhibition of growth of microorganisms, in words [5]: not inhibitory at the concentrations tested

What does the source list for `CCCCCCCC/C=C\CCCCCCCC(=O)O` [Oleic acid, reference compound]?
inhibition of viral replication, in words [4]: most effective; inactivation of virus (virucidal activity), in words [6]: most effective fatty acid tested; plaque count ([7]; Table 1, dilution 1:10): 36; titer ([7]; Table 1, dilution 1:10, controls 2.6 × 10^4 (a), 1.3 × 10^4 (b)): 1.2 × 10^2; plaque count ([7]; Table 1, dilution 1:100): TNTC; plaque count ([7]; Table 1, dilution 1:200): TNTC; plaque count ([7]; Table 1, dilution 1:400): TNTC; plaque count ([7]; Table 1, dilution 1:800): TNTC; plaque count ([7]; Table 1, dilution 1:1600): TNTC; plaque count ([7]; Table 1, dilution 1:3200): TNTC; plaque count ([7]; Table 1, dilution 1:6400): TNTC; virucidal activity against HSV-2 in words ([7]; in vitro bioassay): not active

For `CCCCCC=CCC=CCC=CCCCCCO` [gamma-linolenyl alcohol, 6,9,12-octadecatrien-1-ol], which “antiviral activity in vitro, in words” value [8] is on record?
The value was “most active”.

For `CCCCCC/C=C\CCCCCCCC(=O)O` [palmitoleic acid], which “inhibition of viral replication, in words” value [4] is on record?
The value was “most effective”.
